According to PMC9181691, “Characterization of the Biomass Degrading Enzyme GuxA from Acidothermus cellulolyticus” (International Journal of Molecular Sciences, 2022):

Biological target: T1, GuxA GH12 domain (Acidothermus cellulolyticus, UniProt A0LSH8)
T1 construct: gene Acel_0615; GH12 catalytic domain only (between CBM3 and CBM2 of full-length GuxA), codon optimized, C-terminal hexahistidine tag, pET22b(+), E. coli BL21(DE3), 24 kDa
Assay: X-ray crystallography, crystal soak
Assay type: binding
Conditions: 24 h soak with excess cellobiose powder; crystals from 10% PEG 8K, 0.2 M ZnCl2, 0.1 M Na cacodylate pH 6.5; active site groove

T1 sequence (A0LSH8 entry or part of it): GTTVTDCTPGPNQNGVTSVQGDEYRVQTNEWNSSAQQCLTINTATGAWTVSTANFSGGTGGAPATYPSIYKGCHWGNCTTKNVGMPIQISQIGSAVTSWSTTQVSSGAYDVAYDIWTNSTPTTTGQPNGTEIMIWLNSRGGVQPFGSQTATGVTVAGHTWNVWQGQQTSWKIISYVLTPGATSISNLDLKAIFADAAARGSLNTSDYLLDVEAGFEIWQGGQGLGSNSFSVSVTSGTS

OC[C@H]1O[C@@H](O[C@H]2[C@H](O)[C@@H](O)C(O)O[C@@H]2CO)[C@H](O)[C@@H](O)[C@@H]1O (stereo partly shown) [cellobiose]
X-ray crystallography, crystal soak: A cellobiose molecule was found and modeled in the active site groove.
